Converted amounts (≈) assume the structure as drawn.
Conditions: for solubility: 25 °C

Compound	solubility [µM]	logP
COc1cc(Cl)c(Cl)c(Cl)c1Cl	5.49 (≈ 1.35 µg/mL)	–
COc1cc(Cl)c(Cl)cc1OC	348 (≈ 72 µg/mL)	3.11
COc1c(Cl)c(Cl)c(Cl)c(Cl)c1OC	5.76 (≈ 1.59 µg/mL)	4.86
COc1c(Cl)c(Cl)cc(Cl)c1Cl	7.4 (≈ 1.82 µg/mL)	–
COc1cc(Cl)c(Cl)c(Cl)c1OC	42.6 (≈ 10.3 µg/mL)	4.01
COc1ccc(Cl)c(Cl)c1Cl	51.1 (≈ 10.8 µg/mL)	–

Now from value to compound:

solubility [µM]	logP	Compound
1650 (≈ 235 µg/mL)	–	COc1cccc(Cl)c1
491 (≈ 86.9 µg/mL)	3.24	COc1cccc(Cl)c1Cl
791 (≈ 140 µg/mL)	3.14	COc1c(Cl)cccc1Cl

Reference: the OPERA property sets (Mansouri et al. 2018)
